In DBAASP:
≈ marks a conversion by molar mass, not a printed value.

Tests used:
Assay in all cases: ≥ marks a high value that may be exact or a test limit, other limits are often not marked, values filed in µg/mL are converted to µM
Staphylococcus aureus = tested on: Staphylococcus aureus
Salmonella typhimurium = tested on: Salmonella typhimurium
Escherichia coli = tested on: Escherichia coli
Bacillus subtilis = tested on: Bacillus subtilis
[1] = tested on: Staphylococcus aureus ATCC 25923
[2] = tested on: Staphylococcus epidermidis ATCC 12228
[3] = tested on: Bacillus subtilis ATCC 23857
[4] = tested on: Pseudomonas aeruginosa ATCC 27853
[5] = tested on: Escherichia coli ATCC 25922
[6] = tested on: Acinetobacter baumannii ATCC 19606
[7] = tested on: Enterococcus faecalis ATCC 29212
[8] = tested on: Klebsiella pneumoniae ATCC 700603
[9] = tested on: Klebsiella pneumoniae ATCC 13883
Klebsiella pneumoniae = tested on: Klebsiella pneumoniae
Pseudomonas aeruginosa = tested on: Pseudomonas aeruginosa
Acinetobacter baumannii = tested on: Acinetobacter baumannii
[10] = tested on: Candida albicans ATCC 10231
[11] = tested on: Pseudomonas aeruginosa ATCC 9027
[12] = tested on: Staphylococcus aureus ATCC 29213

Structure (SMILES)	MIC (Staphylococcus aureus) [µM]	MIC [1] [µM]	MIC [3] [µM]	MIC [4] [µM]	MIC [5] [µM]	MIC [6] [µM]	MIC [7] [µM]	MIC [8] [µM]	other results
CC(C)[C@H](NC(=O)CNC(=O)[C@H](CCCN=C(N)N)NC(=O)[C@@H](NC(=O)[C@H](Cc1c[nH]c2ccccc12)NC(=O)[C@@H](NC(=O)[C@H](CCCN=C(N)N)NC(=O)CNC(=O)[C@H](Cc1c[nH]c2ccccc12)NC(=O)[C@H](CCCN=C(N)N)NC(=O)[C@@H](NC(=O)[C@@H](NC(=O)[C@@H](NC(=O)CN)C(C)C)C(C)C)C(C)C)C(C)C)C(C)C)C(=O)N[C@@H](CCCN=C(N)N)C(=O)N[C@@H](CCCN=C(N)N)C(N)=O [GVVVRWGRVWVRGVRR]	4 (≈ 7.75 µg/mL)								MIC (Salmonella typhimurium): 2 µM (≈ 3.87 µg/mL); MIC (Escherichia coli): 4 µM (≈ 7.75 µg/mL); MIC (Bacillus subtilis): 2 µM (≈ 3.87 µg/mL)
C[C@@H](O)[C@H](NC(=O)[C@H](CCCCN)NC(=O)[C@H](Cc1c[nH]c2ccccc12)NC(=O)[C@H](CCCN=C(N)N)NC(=O)[C@H](CCCCN)NC(=O)[C@H](Cc1c[nH]c2ccccc12)NC(=O)[C@H](Cc1c[nH]c2ccccc12)NC(=O)CN)C(=O)N[C@@H](Cc1c[nH]c2ccccc12)C(=O)N[C@@H](Cc1c[nH]c2ccccc12)C(N)=O [GWWKRWKTWW]		8 (≈ 12.2 µg/mL)	4 (≈ 6.08 µg/mL)	8 (≈ 12.2 µg/mL)	16 (≈ 24.3 µg/mL)	16 (≈ 24.3 µg/mL)	16 (≈ 24.3 µg/mL)	16 (≈ 24.3 µg/mL)	MIC [2]: 4 µM (≈ 6.08 µg/mL)
CC[C@H](C)[C@H](N)C(=O)N[C@@H](CC(N)=O)C(=O)N[C@@H](CC(C)C)C(=O)N[C@@H](CCCCN)C(=O)N[C@H](C(=O)N[C@@H](CC(C)C)C(=O)N[C@@H](C)C(=O)N[C@@H](CCCN=C(N)N)C(=O)N[C@@H](CC(C)C)C(=O)N[C@@H](C)C(=O)N[C@@H](CCCCN)C(=O)N[C@@H](CCCCN)C(=O)N[C@H](C(=O)N[C@@H](CC(C)C)C(N)=O)[C@@H](C)CC)[C@@H](C)CC [INLKILARLAKKIL]	3 (≈ 4.82 µg/mL)	6.25 (≈ 10 µg/mL)							MIC [9]: 3 µM (≈ 4.82 µg/mL); MIC (Klebsiella pneumoniae): 3 µM (≈ 4.82 µg/mL)
CC(C)C[C@H](NC(=O)[C@H](Cc1ccc(O)cc1)NC(=O)[C@H](CCCCN)NC(=O)[C@H](Cc1ccccc1)NC(=O)[C@H](CC(C)C)NC(=O)[C@H](CCCN=C(N)N)NC(=O)[C@H](CCCCN)NC(=O)[C@H](Cc1ccccc1)NC(=O)[C@H](CC(C)C)NC(=O)[C@H](CCCN=C(N)N)NC(=O)[C@@H](N)CCCCN)C(=O)N[C@@H](CCCN=C(N)N)C(=O)N[C@@H](CCCN=C(N)N)C(=O)N[C@@H](Cc1ccccc1)C(=O)O [KRLFKRLFKYLRRF]		0.507 (≈ 1 µg/mL)		0.507 (≈ 1 µg/mL)	1.01 (≈ 2 µg/mL)	1.01 (≈ 2 µg/mL)			MIC (Pseudomonas aeruginosa): 2.03 µM (≈ 4 µg/mL); MIC (Acinetobacter baumannii): 1.01 µM (≈ 2 µg/mL); MIC [10]: 2.03 µM (≈ 4 µg/mL)
CC[C@H](C)[C@H](NC(=O)[C@H](CCCCN)NC(=O)[C@H](CCCCN)NC(=O)[C@H](C)NC(=O)[C@@H](NC(=O)[C@H](C)NC(=O)[C@H](CC(C)C)NC(=O)[C@H](CC(C)C)NC(=O)[C@H](CCCCN)NC(=O)[C@H](CCCCN)NC(=O)[C@H](CC(C)C)NC(=O)[C@H](CC(N)=O)NC(=O)[C@@H](N)CC(C)C)C(C)C)C(N)=O [LNLKKLLAVAKKI]		128 (≈ 186 µg/mL)	8 (≈ 11.6 µg/mL)		16 (≈ 23.2 µg/mL)			64 (≈ 92.9 µg/mL)	MIC [11]: 16 µM (≈ 23.2 µg/mL)
CC[C@H](C)[C@H](NC(=O)[C@H](Cc1cnc[nH]1)NC(=O)[C@H](CCCN=C(N)N)NC(=O)[C@H](CC(C)C)NC(=O)[C@H](CC(N)=O)NC(=O)[C@@H](N)CC(N)=O)C(=O)N[C@H](C(=O)N[C@@H](C)C(=O)N[C@@H](Cc1c[nH]c2ccccc12)C(=O)N[C@H]1CSSC[C@@H](C(=O)N[C@@H](C)C(=O)N[C@@H](CCCN=C(N)N)C(=O)N[C@@H](Cc2ccccc2)C(=O)N[C@@H](CCCCN)C(=O)N2CCC[C@H]2C(=O)N[C@@H](CCC(N)=O)C(=O)O)NC(=O)[C@H](C(C)C)NC(=O)[C@H](C)NC(=O)[C@H](CC(C)C)NC(=O)[C@H](CO)NC(=O)[C@H](Cc2ccc(O)cc2)NC(=O)[C@H](CC(N)=O)NC(=O)[C@H](CCCN=C(N)N)NC(=O)[C@H](CC(N)=O)NC(=O)[C@H](CCCCN)NC1=O)C(C)C [NNLRHIVAWCKNRNYSLAVCARFKPQ]					> 64	> 64	> 64		MIC [12]: > 64 µM
